Assays:
[1] = system: EMT-6 murine mammary carcinoma; type: in vivo, mice; conditions: EMT6/BLAB-c Mice; dose VNP40541 85-115 mpk, VNP40551 55-85 mpk
Procedure: (§1) The anti-tumor effects of aforementioned prodrugs are evaluated in both solid and liquid tumor models, including the B16-F10 murine melanoma, HTB177 human lung carcinoma models, DLD1 human colon carcinoma, EMT-6 murine mammary gland carcinoma, L1210 murine leukemia, lymphoma, prostate cancer, pancreatic cancer, and head-and-neck cancer. The prodrugs are given intravenously, orally, or intraperitoneally at doses from 10 mg/kg to 2000 mg/kg; they are give at different dosing schedules such as 4 times daily, once daily, or once every several days for up to 60 doses. Testing tumor cells were implanted subcutaneously into mice, which were randomized into groups immediately after tumor cell implantation (Day 0). Mice were injected intraperitoneally (ip) with either a bolus injection of 0.1 mL PBS or drug. The treatment was carried out in a designed dosing schedule. Tumor measurement in three dimensions was determined once a week with the formula L×H×W/2, where L, H, and W represent length, height, and width, respectively.
(§2) Efficacy of KS119 was studied in murine tumor model and human xenograft models. EMT-6 murine mammary carcinoma cells (3×10^5 cells/mouse) were implanted subcutaneously into Balb/c mice. H460 human lung carcinoma cells, HT29 human colon carcinoma cells and SHP77 human lung carcinoma cells were established as solid xenografts in nu/nu CD-1 mice and Scid/Beige mice with 7×10^7 cells/mouse, respectively. After implantation, tumors were allowed to grow to a size of 150 to 200 mm^3 before starting treatment with KS119. KS119 was formulated in a solvent containing polyethylene glycol 300 (PEG), ethyl alcohol, citric acid, and ascorbic acid.
(§3) Efficacies of KS119W and KS119 were compared with equivalence molar doses in EMT-6 tumor and H460 tumor models. KS119W was formulated with 0.25M sodium bicarbonate solution. The treatment was started when tumors researched 150 to 200 mm^3, and lasted up to 2 weeks. KS119 at doses of 80 and 100 mg/kg and KS119W at doses of 97.6 and 121.3 mg/kg were daily administrated into mice via ip injection. […] To assess the toxicity of treatment, body weight and peripheral blood cell count were monitored after treatment.
(§4) Combined therapy of KS119W with cytoxan (CTX) was evaluated by using KS119W at dose below the MTD in combination with nontoxic dose of CTX against EMT-6 murine mammary carcinoma and H460 human lung carcinoma in CD-1 nude mice. The tumors were allowed to grow to a size of approximately 200 mm^3. In H460 tumor model, the animals received either with 4 doses 180 mg/kg and 1 dose 240 mg/kg of KS119 or CTX at dose of 100 mg/kg per dose per animal, ip injecting the drugs on 15, 22, 27, 34 and 43 days after the tumor implantation. In the combination studies, CTX was given two hours after dosing KS119W.

[2] = system: H460 human lung carcinoma; type: in vivo, mice; conditions: H460/Nude Mice; dose VNP40541 80-140 mpk, VNP40551 40-80 mpk
Procedure: as §1, §2, §3, §4

## C[C@@H](OC(=O)N(N(CCCl)S(C)(=O)=O)S(C)(=O)=O)c1ccc([N+](=O)[O-])c(OP(=O)(O)O)c1 [VNP40541]
[1]
  Inhibition (%): 58-69%
[2]
  Inhibition (%): 52-80%

Reference: patent US7405317B2, “Phosphate-bearing prodrugs of sulfonyl hydrazines as hypoxia-selective antineoplastic agents” (priority 2004, dated 2008)
